Assay results as given in patent US7829563B2, “Aminoamides as orexin antagonists” (Hoffmann-La Roche Inc., priority 2007, dated 2010).
Counter-ions that a name gives are not always drawn.

Target: T1, human orexin-2 (hOX2) receptors (Homo sapiens, UniProt O43614)
T1 construct: expressed in transfected cells
T1 sequence (O43614 1-444): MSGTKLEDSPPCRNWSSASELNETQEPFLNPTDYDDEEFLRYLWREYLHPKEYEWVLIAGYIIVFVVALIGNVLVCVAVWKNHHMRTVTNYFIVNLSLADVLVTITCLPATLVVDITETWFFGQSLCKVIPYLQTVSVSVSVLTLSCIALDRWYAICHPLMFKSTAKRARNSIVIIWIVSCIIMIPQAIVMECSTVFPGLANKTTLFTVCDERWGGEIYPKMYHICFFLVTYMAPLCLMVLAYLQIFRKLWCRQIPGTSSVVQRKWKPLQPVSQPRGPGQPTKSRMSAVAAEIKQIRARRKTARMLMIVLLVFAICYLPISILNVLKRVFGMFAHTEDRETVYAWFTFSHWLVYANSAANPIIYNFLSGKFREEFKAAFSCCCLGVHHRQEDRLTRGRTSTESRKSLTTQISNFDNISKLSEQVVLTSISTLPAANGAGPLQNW
Experiment: Intracellular Ca2+ mobilization assay (FLIPR), antagonism of orexin-A
Format: cell-based
Details: CHO(dHFr−) cells stably expressing hOX2; orexin-A at EC80 as agonist; Kb=IC50/(1+[A]/EC50); read-out: Kb (μM) OX2R (human)
Description: R^7 and R^8 in scheme 5 are hydrogen, and the other substituents are as described above The compounds were investigated in accordance with the test given hereinafter. Intracellular Ca^2+ Mobilization Assay
The Chinese Hamster Ovary (dHFr−) mutant cell line stably expressing human orexin-1 (hOX1) or human orexin-2 (hOX2) receptors were maintained in Dulbecco's Modified Eagle Medium (1×) with GlutaMax™ 1, 4500 mg/L D-Glucose and Sodium Pyruvate (Catalog No. 31966-021, Invitrogen, Carlsbad, Calif.), 5% dialyzed fetal calf serum (Catalog No. 26400-044), 100 μg/ml penicillin and 100 μg/ml streptomycin. The cells were seeded at 5×10^4 cells/well in the poly-D-lysine treated, 96-well, black/clear-bottomed plates (Catalog No. BD356640, BD Biosciences, Palo Alto, Calif.). 24 h later, the cells were loaded for 1 h at 37° C. with 4 μM Flou-4 acetoxymethyl ester (Catalog No. F-14202, Molecular Probes, Eugene, Oreg.) in FLIPR buffer (1×HBSS, 20 mM HEPES, 2.5 mM Probenecid). Hanks' Balanced Salt Solution (HBSS) (10×) (catalog No. 14065-049) and HEPES (1M) (catalog No. 15630-056) were purchased from Invitrogen, Carlsbad, Calif. Probenecid (250 mM) (catalog No. P8761) was from Sigma, Buchs, Switzerland. The cells were washed five times with FLIPR buffer to remove excess dye and intracellular calcium mobilization, [Ca^2+]i were measured using a Fluorometric Imaging Plate Reader (FLIPR-96, Molecular Devices, Menlo Park, Calif.) as described previously (Malherbe et al., Mol. Pharmacol., 64, 823-832, 2003). Orexin A (catalog No. 1455, Toris Cookson Ltd, Bristol, UK) was used as agonist. Orexin A ([…] stock solution in DMSO) was diluted in FLIPR buffer+0.1% BSA. The EC50 and EC80 values of orexin-A were measured daily from standard agonist concentration-response curves in CHO(dHFr−)-OX1R and —OX2R cell lines. All compounds were dissolved in 100% DMSO. Inhibition curves were determined by addition of 11 concentrations (0.0001-10 μM) of inhibitory compounds and using EC80 value of orexin-A as agonist (a concentration which gave 80% of max agonist response, determined daily). The antagonists were applied 25 min (incubation at 37° C.) before the application of the agonist. Responses were measured as peak increase in fluorescence minus basal, normalized to the maximal stimulatory effect induced by EC80 value of orexin-A or orexin-B. Inhibition curves were fitted according to the Hill equation: y=100/(1+(x/IC50)^nH), where nH=slope factor using Excel-fit 4 software (Microsoft). Kb values were calculated according to the following equation Kb=IC50/(1+[A]/EC50) where A is the concentration of agonist added which is very close to agonist EC80 value, and IC50 and EC50 values were derived from the antagonist inhibition and orexin-A or B agonist curves, respectively.

Row | Compound | Kb
1 | CNC(=O)[C@H](N[C@@H](CCc1ccc(C)cc1)c1ccc(F)c(C)c1)c1ccccc1 [Example 397, (R)-2-[(S)-1-(4-Fluoro-3-methyl-phenyl)-3-p-tolyl-propylamino]-N-methyl-2-phenyl-acetamide] | 0.0042 µM
2 | CNC(=O)[C@H](N[C@@H](CCc1ccc(OC)cc1)c1cccnc1OC)c1ccccc1 (racemic) [Example 135, (S,R)-2-[(R,S)-3-(4-Methoxy-phenyl)-1-(2-methoxy-pyridin-3-yl)-propylamino]-N-methyl-2-phenyl-acetamide] | 0.0155 µM
3 | CNC(=O)[C@H](N[C@@H](CCc1ccc(C(F)(F)F)cc1)c1ccc(Cl)c(OC)c1)c1ccccc1 (racemic) [Example 177, (S,R)-2-[(R,S)-1-(4-Chloro-3-methoxy-phenyl)-3-(4-trifluoromethyl-phenyl)-propylamino]-N-methyl-2-phenyl-acetamide] | 0.0099 µM
4 | CNC(=O)[C@H](N[C@@H](CCc1ccc(C(F)(F)F)cc1)c1cccc(OC)c1)c1ccccc1 [Example 221, (R)-2-[(S)-1-(3-Methoxy-phenyl)-3-(4-trifluoromethyl-phenyl)-propylamino]-N-methyl-2-phenyl-acetamide hydrochloride] | 0.0026 µM
5 | CNC(=O)[C@H](N[C@@H](CCc1ccc(Cl)cc1)c1ccc(OC)c(OC)c1Cl)c1ccccc1 [Example 98, (R)-2-[(S)-1-(2-Chloro-3,4-dimethoxy-phenyl)-3-(4-chloro-phenyl)-propylamino]-N-methyl-2-phenyl-acetamide] | 0.0014 µM
6 | CNC(=O)[C@H](N[C@@H](CCc1ccc(C(F)(F)F)nc1)c1ccc(F)c(OC)c1)c1ccc(F)cc1 (racemic) [Example 240, (S,R)-2-[(R,S)-1-(4-Fluoro-3-methoxy-phenyl)-3-(6-trifluoromethyl-pyridin-3-yl)-propylamino]-2-(4-fluoro-phenyl)-N-methyl-acetamide] | 0.0107 µM
7 | CNC(=O)[C@H](N[C@@H](CCc1ccc(C(F)(F)F)nc1)c1cc(C)ccc1F)c1ccc(F)cc1 [Example 107, (R)-2-[(S)-1-(2-Fluoro-5-methyl-phenyl)-3-(6-trifluoromethyl-pyridin-3-yl)-propylamino]-2-(4-fluoro-phenyl)-N-methyl-acetamide] | 0.0124 µM
8 | CNC(=O)[C@H](N[C@H](CCc1ccc(C(F)(F)F)nc1)c1ccc(Cl)c(OC)c1)c1ccc(F)cc1 (racemic) [Example 223, (S,R)-2-[(S,R)-1-(4-Chloro-3-methoxy-phenyl)-3-(6-trifluoromethyl-pyridin-3-yl)-propylamino]-2-(4-fluoro-phenyl)-N-methyl-acetamide] | 0.0171 µM
9 | CNC(=O)[C@H](N[C@@H](CCc1ccc(OC)cc1)c1ccc(OC)c(OC)c1)c1ccccc1 (racemic) [Example 146, (S,R)-2-[(R,S)-1-(3,4-Dimethoxy-phenyl)-3-(4-methoxy-phenyl)-propylamino]-N-methyl-2-phenyl-acetamide] | 0.0132 µM
10 | CNC(=O)[C@H](N[C@@H](CCc1ccc(C(F)(F)F)cc1)c1cccnc1OC)c1ccccc1 (racemic) [Example 179, (S,R)-2-[(R,S)-1-(2-Methoxy-pyridin-3-yl)-3-(4-trifluoromethyl-phenyl)-propylamino]-N-methyl-2-phenyl-acetamide] | 0.0081 µM
11 | CNC(=O)[C@H](N[C@@H](CCc1ccc(Cl)cc1)c1ccc2c(c1)CCO2)c1ccccc1 (racemic) [Example 38, (S,R)-2-[(R,S)-3-(4-Chloro-phenyl)-1-(2,3-dihydro-benzofuran-5-yl)-propylamino]-N-methyl-2-phenyl-acetamide] | 0.0096 µM
12 | CNC(=O)C(NC(CCc1ccc(C(F)(F)F)cc1)c1sc(C)nc1C)c1ccc(F)cc1 (centres unmarked) [Example 80, 2-[1-(2,4-Dimethyl-thiazol-5-yl)-3-(4-trifluoromethyl-phenyl)-propylamino]-2-(4-fluoro-phenyl)-N-methyl-acetamide] | 0.0192 µM
13 | CNC(=O)[C@H](N[C@@H](CCc1ccc(C(F)(F)F)cc1)c1cccc(OC(F)F)c1)c1ccccc1 [Example 387, (R)-2-[(S)-1-(3-Difluoromethoxy-phenyl)-3-(4-trifluoromethyl-phenyl)-propylamino]-N-methyl-2-phenyl-acetamide] | 0.008 µM
14 | CNC(=O)[C@@H](N[C@H](CCc1ccc(C(F)(F)F)cc1)c1cccc(OC)c1)c1ccccc1 [Example 222, (S)-2-[(R)-1-(3-Methoxy-phenyl)-3-(4-trifluoromethyl-phenyl)-propylamino]-N-methyl-2-phenyl-acetamide hydrochloride] | 0.0171 µM
15 | COc1ccc(C(CCc2ccc(C(F)(F)F)cc2)N[C@@H](C(=O)NCC2CC2)c2ccccc2)cc1OC (single isomer, unassigned) [Example 16, (R)-N-Cyclopropylmethyl-2-[(R or S)-1-(3,4-dimethoxy-phenyl)-3-(4-trifluoromethyl-phenyl)-propylamino]-2-phenyl-acetamide] | 0.0142 µM
16 | CNC(=O)[C@H](N[C@@H](CCc1ccc(C)nc1)c1ccc(F)c(C)c1)c1ccccc1 [Example 262, (R)-2-[(S)-1-(4-Fluoro-3-methyl-phenyl)-3-(6-methyl-pyridin-3-yl)-propylamino]-N-methyl-2-phenyl-acetamide] | 0.0173 µM

Now from value to molecule:

Row | Kb | Compound
17 | 0.0024 µM | CNC(=O)[C@H](N[C@@H](CCc1ccc(C)cc1)c1ccc(OC)c(OC)c1)c1ccccc1 (racemic) [Example 209, (S,R)-2-[(R,S)-1-(3,4-Dimethoxy-phenyl)-3-p-tolyl-propylamino]-N-methyl-2-phenyl-acetamide]
18 | 0.0097 µM | CNC(=O)[C@H](N[C@@H](CCc1ccc(F)cc1)c1ccc(OC)c(OC)c1)c1ccccc1 (single isomer, unassigned) [Example 144]
19 | 0.005 µM | CNC(=O)[C@H](N[C@@H](CCc1ccc(C(F)(F)F)nc1)c1ccc(OC)c(OC)c1)c1ccccc1 (racemic) [Example 171, (S,R)-2-[(R,S)-1-(3,4-Dimethoxy-phenyl)-3-(6-trifluoromethyl-pyridin-3-yl)-propylamino]-N-methyl-2-phenyl-acetamide]
20 | 0.0196 µM | CNC(=O)[C@H](N[C@@H](CCc1ccc(C(F)(F)F)nc1)c1ccc(C)c(Cl)c1)c1ccccc1 (racemic) [Example 238, (S,R)-2-[(R,S)-1-(3-Chloro-4-methyl-phenyl)-3-(6-trifluoromethyl-pyridin-3-yl)-propylamino]-N-methyl-2-phenyl-acetamide]
21 | 0.0035 µM | CNC(=O)[C@H](N[C@@H](CCc1ccc(C(F)(F)F)nc1)c1ccc(F)c(C)c1)c1ccccc1 (racemic) [Example 228, (S,R)-2-[(R,S)-1-(4-Fluoro-3-methyl-phenyl)-3-(6-trifluoromethyl-pyridin-3-yl)-propylamino]-N-methyl-2-phenyl-acetamide]
22 | 0.0017 µM | CNC(=O)[C@H](NC(CCc1ccc(C(F)(F)F)cc1)c1ccc(OC)c(OC)c1)c1ccccc1 (single isomer, unassigned) [Example 6, (R)-2-[(S or R)-1-(3,4-Dimethoxy-phenyl)-3-(4-trifluoromethyl-phenyl)-propylamino]-N-methyl-2-phenyl-acetamide]
23 | 0.0024 µM | CNC(=O)[C@H](N[C@H](CCc1ccc(C(F)(F)F)nc1)c1ccc(C)c(OC)c1)c1ccccc1 (racemic) [Example 252, (S,R)-2-[(S,R)-1-(3-Methoxy-4-methyl-phenyl)-3-(6-trifluoromethyl-pyridin-3-yl)-propylamino]-N-methyl-2-phenyl-acetamide]
